These results are taken from BindingDB's records for patent US10065961 (Ogeda, 2018).

The target of the test is T1, Neuromedin-K receptor (Homo sapiens, UniProt P29371).
T1 sequence (P29371 whole entry): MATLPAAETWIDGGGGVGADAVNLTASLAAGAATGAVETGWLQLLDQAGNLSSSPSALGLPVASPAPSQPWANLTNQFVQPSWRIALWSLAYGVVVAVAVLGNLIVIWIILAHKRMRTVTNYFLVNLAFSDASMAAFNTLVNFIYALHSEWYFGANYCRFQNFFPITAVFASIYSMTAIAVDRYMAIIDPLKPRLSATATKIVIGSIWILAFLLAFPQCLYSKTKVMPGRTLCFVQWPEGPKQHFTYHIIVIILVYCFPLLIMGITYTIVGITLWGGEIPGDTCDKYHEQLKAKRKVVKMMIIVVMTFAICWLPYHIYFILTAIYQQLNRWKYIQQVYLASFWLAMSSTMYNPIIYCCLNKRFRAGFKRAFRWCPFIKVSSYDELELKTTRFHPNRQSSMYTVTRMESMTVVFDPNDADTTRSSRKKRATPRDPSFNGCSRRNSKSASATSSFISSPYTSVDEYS
Briefly: Aequorin Assay with Human NK-3 Receptor.

Description: The antagonist activity of compounds of the invention is measured following pre-incubation (3 minutes) of the compound with the cells, followed by addition of the reference agonist (NKA) at a final concentration equivalent to the EC80 (3 nM) and recording of emitted light (FDSS 6000 Hamamatsu) over the subsequent 90-second period. The intensity of the emitted light is integrated using the reader software.

A word on the IC50: it is the midpoint of a concentration-inhibition curve. Low values mean higher potency, high ones lower potency. Take `Cc1coc(-c2nnc3n2CCN[C@@H]3C)n1` [US10065961, Compound 27]: 51 nM corresponded to half-maximal inhibition (IC50).
